Measured values taken from US11492348B2, “Tri-substituted aryl and heteroaryl derivatives as modulators of PI3-kinase and autophagy pathways” (Neuropore Therapies, Inc., priority 2018, dated 2022).
Structures can show the parent of a compound that is named as a salt.

Tests used:
PI3Kα = PI3Kα (Homo sapiens (Human), UniProt P42336); assay: Inhibition of PI3Kα (ADP-Glo kinase activity assay, ATP to ADP conversion); assay type: biochemical; settings: 25 μM PIP2:PS, 60 μM ATP, 30 min reaction, luminescence
Sequence of PI3Kα (P42336 whole entry): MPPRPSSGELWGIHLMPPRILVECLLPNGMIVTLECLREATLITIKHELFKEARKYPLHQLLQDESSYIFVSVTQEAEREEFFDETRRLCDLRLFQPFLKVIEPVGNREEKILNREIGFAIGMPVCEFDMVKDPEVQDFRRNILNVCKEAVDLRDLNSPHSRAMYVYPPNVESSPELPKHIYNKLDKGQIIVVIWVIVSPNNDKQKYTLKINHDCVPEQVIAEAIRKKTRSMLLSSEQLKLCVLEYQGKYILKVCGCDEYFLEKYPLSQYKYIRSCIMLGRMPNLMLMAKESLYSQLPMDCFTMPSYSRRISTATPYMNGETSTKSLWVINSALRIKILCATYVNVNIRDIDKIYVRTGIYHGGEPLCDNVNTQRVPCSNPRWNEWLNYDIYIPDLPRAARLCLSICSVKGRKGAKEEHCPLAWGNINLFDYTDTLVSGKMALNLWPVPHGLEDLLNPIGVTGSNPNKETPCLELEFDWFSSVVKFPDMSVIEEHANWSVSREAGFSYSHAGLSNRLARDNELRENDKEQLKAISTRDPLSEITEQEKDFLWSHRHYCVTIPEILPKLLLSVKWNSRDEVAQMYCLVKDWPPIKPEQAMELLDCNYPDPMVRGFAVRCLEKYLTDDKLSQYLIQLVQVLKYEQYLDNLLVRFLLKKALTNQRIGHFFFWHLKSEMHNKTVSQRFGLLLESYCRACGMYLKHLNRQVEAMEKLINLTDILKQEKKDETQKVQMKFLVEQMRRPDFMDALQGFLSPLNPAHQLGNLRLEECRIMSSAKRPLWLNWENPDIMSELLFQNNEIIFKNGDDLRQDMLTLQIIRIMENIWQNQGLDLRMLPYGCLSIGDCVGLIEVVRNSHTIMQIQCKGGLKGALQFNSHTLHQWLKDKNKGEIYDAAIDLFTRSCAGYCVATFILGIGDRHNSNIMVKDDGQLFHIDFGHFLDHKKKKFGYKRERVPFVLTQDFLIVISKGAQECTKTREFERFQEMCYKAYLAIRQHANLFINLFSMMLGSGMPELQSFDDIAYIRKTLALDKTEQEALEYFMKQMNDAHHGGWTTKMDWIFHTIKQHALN
Sequence of PI3Kα (P27986 whole entry partner): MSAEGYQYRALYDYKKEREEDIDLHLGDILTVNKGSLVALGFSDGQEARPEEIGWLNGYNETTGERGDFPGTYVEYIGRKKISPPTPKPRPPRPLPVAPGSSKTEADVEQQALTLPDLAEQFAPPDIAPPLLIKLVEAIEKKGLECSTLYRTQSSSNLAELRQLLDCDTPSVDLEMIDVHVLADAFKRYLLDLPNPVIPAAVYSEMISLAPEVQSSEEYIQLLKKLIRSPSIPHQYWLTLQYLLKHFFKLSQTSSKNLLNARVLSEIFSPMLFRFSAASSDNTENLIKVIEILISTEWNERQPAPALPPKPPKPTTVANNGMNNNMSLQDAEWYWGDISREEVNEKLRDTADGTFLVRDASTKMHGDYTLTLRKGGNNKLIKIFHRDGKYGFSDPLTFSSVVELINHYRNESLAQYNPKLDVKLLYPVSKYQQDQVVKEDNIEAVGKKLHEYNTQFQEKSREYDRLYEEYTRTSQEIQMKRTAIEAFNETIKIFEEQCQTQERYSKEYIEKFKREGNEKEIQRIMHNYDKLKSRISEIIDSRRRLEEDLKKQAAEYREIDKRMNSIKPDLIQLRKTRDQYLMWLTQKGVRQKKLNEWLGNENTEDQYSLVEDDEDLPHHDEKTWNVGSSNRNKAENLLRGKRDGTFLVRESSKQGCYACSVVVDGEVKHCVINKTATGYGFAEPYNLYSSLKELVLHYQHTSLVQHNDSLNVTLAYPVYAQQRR
Procedure, shortened: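 Recombinant active PI3Kα (1.1 nM) in HEPES pH 7.5 buffer with 6 mM MgCl2 and 8 mM DTT was preincubated with compound for 0 or 3 h. The reaction ran for 30 min with 25 µM PIP2:PS and 60 µM ATP, and ADP formation was read by ADP-Glo luminescence. IC50 came from a 12-point, 1:3 series fitted with a 4-parameter model, bottom fixed to reference inhibitor controls and top floating.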

[1] = tested on: (Ser-473) pAKT in B103 (Rat Neuroblastoma) cells; assay: pAKT protocol: loss of (Ser-473) pAKT by AlphaScreen in insulin-stimulated B103 cells; assay type: cell-based; settings: (Ser-473) pAKT/total AKT IC50, 2-hour pretreatment, 2.5 μg/mL insulin 20 minutes
Protocol: Inhibition of the PI3K-AKT-mTOR pathway was measured by quantifying the loss of (Ser-473) pAKT using AlphaScreen (Perkin Elmer). B103 (Rat Neuroblastoma) cells were seeded in serum containing medium (High Glucose DMEM (-Phenol Red)+10% FBS+2× Glutamax+1 mM Sodium Pyruvate+10 mM HEPES+1× Non-Essential Amino Acids+1× Pen/Strep) on a 96-well tissue culture treated plate and grown for 20 hours. Cells were then serum starved in serum free medium (High Glucose DMEM (-Phenol Red)+1× Glutamax+1 mM Sodium Pyruvate+1× Pen/Strep) for 6 hours prior to a 2-hour pretreatment with inhibitors of the pathway, including reference inhibitor LY294002. These inhibitors were prepared at a 200× final concentration as a 6-point, 1:3 serial dilution in DMSO series, with DMSO as the 7th point. The inhibitors were then diluted in experimental medium (High Glucose DMEM (-Phenol Red)+1× Glutamax+1 mM Sodium Pyruvate+1× Pen/Strep+25 mM HEPES+0.1% BSA) and combined with the cells at 1× final concentration in 0.5% DMSO. […] Cells were promptly lysed using Perkin Elmer proprietary lysis buffer and the (Ser-473) pAKT and total AKT contained in the lysate was measured by AlphaScreen. In AlphaScreen, donor beads were coated with streptavidin to capture one of the antibodies, which is biotinylated. Acceptor beads were coated with Protein A to immobilize the other antibody. In the presence of target protein, the two antibodies bring the donor and acceptor beads close together, generating signal. The amount of light emission is directly proportional to the amount of target protein present in the sample. For each inhibitor tested: the ratio of measured (Ser-473) pAKT/totalAKT was plotted in GraphPad Prism as a 7-point, non-linear regression, 4-parameter curve with bottom constrained to reference control bottom and unconstrained top anchored to DMSO.

Compound | PI3Ka IC50 (PI3Kα) [µM] | IC50 [1] [µM]
CC(=O)N1CCC(S(=O)(=O)c2cc(-c3cnc(N)nc3)cc(N3CCOCC3)c2)CC1 [Compound 83, 1-(4-((3-(2-aminopyrimidin-5-yl)-5-morpholinophenyl)sulfonyl)piperidin-1-yl)ethan-1-one] | 0.34 | 8.47
Nc1ncc(-c2cc(N3CCOCC3)cc(S(=O)(=O)c3ccccc3)n2)cn1 [Compound 117, 5-(4-morpholino-6-(phenylsulfonyl)pyridin-2-yl)pyrimidin-2-amine] | 3.3 | 17.3
Nc1ncc(-c2cc(N3CCOCC3)cc(S(=O)(=O)C3CCCCC3)c2)cn1 [Compound 49, 5-(3-(cyclohexylsulfonyl)-5-morpholinophenyl)pyrimidin-2-amine] | 0.49 | 31.1
Nc1ncc(-c2cc(N3CCOCC3)cc(S(=O)(=O)c3ccc4c(c3)OCC4)c2)cn1 [Compound 116, 5-(3-((2,3-dihydrobenzofuran-6-yl)sulfonyl)-5-morpholinophenyl)pyrimidin-2-amine] | 2.3 | 22.9
Nc1ncc(-c2cc(N3CCOCC3)cc(S(=O)(=O)Cc3ccncc3)c2)cn1 [Compound 97, 5-(3-morpholino-5-((pyridin-4-ylmethyl)sulfonyl)phenyl)pyrimidin-2-amine] | 0.51 | 12.4
COCNC(=O)N1CC(S(=O)(=O)c2cc(-c3cnc(N)nc3)cc(N3CCOCC3)c2)C1 [Compound 94, 3-((3-(2-aminopyrimidin-5-yl)-5-morpholinophenyl)sulfonyl)-N-(methoxymethyl)azetidine-1-carboxamide] | 0.11 | 19.8
Nc1ncc(-c2cc(N3CCOCC3)cc(S(=O)(=O)[C@@H]3CCOC3)c2)cc1C(F)(F)F [Compound 100, (R)-5-(3-morpholino-5-((tetrahydrofuran-3-yl)sulfonyl)phenyl)-3-(trifluoromethyl)pyridin-2-amine] | 1.6 | 48.2
Nc1cc(C(F)(F)F)c(-c2cc(N3CCOCC3)cc(S(=O)(=O)[C@@H]3CCOC3)c2)cn1 [Compound 71, (R)-5-(3-morpholino-5-((tetrahydrofuran-3-yl)sulfonyl)phenyl)-4-(trifluoromethyl)pyridin-2-amine] | 9.1 | 11.2
Nc1ncc(-c2cc(N3CCOCC3)cc(S(=O)(=O)c3ccc4ccoc4c3)c2)cn1 [Compound 112, 5-(3-(benzofuran-6-ylsulfonyl)-5-morpholinophenyl)pyrimidin-2-amine] | 2.3 | 22.3
Nc1ncc(-c2cc(N3CCOCC3)cc(S(=O)(=O)CC3CCCCC3)c2)cn1 [Compound 60, 5-(3-((cyclohexylmethyl)sulfonyl)-5-morpholinophenyl)pyrimidin-2-amine] | 0.81 | 31.1
Nc1ncc(-c2cc(N3CCOCC3)cc(S(=O)(=O)C3CCOC3)c2)c(C(F)(F)F)n1 (stereo not shown) [Compound 72, 5-(3-morpholino-5-((tetrahydrofuran-3-yl)sulfonyl)phenyl)-4-(trifluoromethyl)pyrimidin-2-amine] | 0.46 | 9.13
Nc1ncc(-c2cc(N3CCOCC3)nc(S(=O)(=O)c3ccccc3)c2)cn1 [Compound 118, 5-(2-morpholino-6-(phenylsulfonyl)pyridin-4-yl)pyrimidin-2-amine] | 0.88 | 13.8
Nc1ncc(-c2cc(N3CCOCC3)cc(S(=O)(=O)c3coc4ccccc34)c2)cn1 [Compound 109, 5-(3-(benzofuran-3-ylsulfonyl)-5-morpholinophenyl)pyrimidin-2-amine] | 1.2 | 15
Nc1ncc(-c2cc(N3CCOCC3)cc(S(=O)(=O)/C=C/c3ccccc3O)c2)cn1 [Compound 113, (E)-2-(2-((3-(2-aminopyrimidin-5-yl)-5-morpholinophenyl)sulfonyl)vinyl)phenol] | 1.1 | 14.3
Nc1ccc(-c2cc(N3CCOCC3)cc(S(=O)(=O)[C@@H]3CCOC3)c2)cn1 [Compound 101, (R)-5-(3-morpholino-5-((tetrahydrofuran-3-yl)sulfonyl)phenyl)pyridin-2-amine] | 0.88 | 8.53
Nc1ncc(-c2cc(N3CCOCC3)cc(S(=O)(=O)CCc3ccc(F)cc3)c2)cn1 [Compound 82, 5-(3-((4-fluorophenethyl)sulfonyl)-5-morpholinophenyl)pyrimidin-2-amine] | 0.29 | 10.8

Now those with a lower IC50 [1], led by results:

PI3Ka IC50 (PI3Kα) [µM] | IC50 [1] [µM] | Compound
0.54 | 6.79 | O=C(C1CC1)N1CC(S(=O)(=O)c2cc(-c3cnc(NC4CC4)nc3)cc(N3CCOCC3)c2)C1 [Compound 102, cyclopropyl(3-((3-(2-(cyclopropylamino)pyrimidin-5-yl)-5-morpholinophenyl)sulfonyl)azetidin-1-yl)methanone]
0.25 | 6.4 | CCC(=O)N1CC(S(=O)(=O)c2cc(-c3cnc(N)nc3)cc(N3CCOCC3)c2)C1 [Compound 75, 1-(3-((3-(2-aminopyrimidin-5-yl)-5-morpholinophenyl)sulfonyl)azetidin-1-yl)propan-1-one]
0.30 | 5.64 | CC(C)C(=O)N1CC(S(=O)(=O)c2cc(-c3cnc(N)nc3)cc(N3CCOCC3)c2)C1 [Compound 76, 1-(3-((3-(2-aminopyrimidin-5-yl)-5-morpholinophenyl)sulfonyl)azetidin-1-yl)-2-methylpropan-1-one]
0.12 | 5.19 | CN(C)C(=O)N1CC(S(=O)(=O)c2cc(-c3cnc(N)nc3)cc(N3CCOCC3)c2)C1 [Compound 95, 3-((3-(2-aminopyrimidin-5-yl)-5-morpholinophenyl)sulfonyl)-N,N-dimethylazetidine-1-carboxamide]
0.21 | 5.02 | Nc1ncc(-c2cc(N3CCOCC3)cc(S(=O)(=O)C3CN(C(=O)c4ccc(F)cc4)C3)c2)cn1 [Compound 79, (3-((3-(2-aminopyrimidin-5-yl)-5-morpholinophenyl)sulfonyl)azetidin-1-yl)(4-fluorophenyl)methanone]
0.69 | 4.72 | CNc1ccc(-c2cc(N3CCOCC3)cc(S(=O)(=O)[C@@H]3CCOC3)c2)cn1 [Compound 108, (R)-N-methyl-5-(3-morpholino-5-((tetrahydrofuran-3-yl)sulfonyl)phenyl)pyridin-2-amine]
0.47 | 3.71 | Nc1ncc(-c2cc(N3CCOCC3)cc(S(=O)(=O)Cc3ccc4[nH]cnc4c3)c2)cn1 [Compound 63, 5-(3-(((1H-benzo[d]imidazol-5-yl)methyl)sulfonyl)-5-morpholinophenyl)pyrimidin-2-amine]
0.10 | 3.19 | Nc1ncc(-c2cc(N3CCOCC3)cc(S(=O)(=O)C3CN(C(=O)C4CC4)C3)c2)cn1 [Compound 77, (3-((3-(2-aminopyrimidin-5-yl)-5-morpholinophenyl)sulfonyl)azetidin-1-yl)(cyclopropyl)methanone]
0.15 | 2.91 | CC(C)(C)NC(=O)N1CC(S(=O)(=O)c2cc(-c3cnc(N)nc3)cc(N3CCOCC3)c2)C1 [Compound 92, 3-((3-(2-aminopyrimidin-5-yl)-5-morpholinophenyl)sulfonyl)-N-(tert-butyl)azetidine-1-carboxamide]
1.2 | 2.18 | NCCNc1ncc(-c2cc(N3CCOCC3)cc(S(=O)(=O)Cc3ccc(F)cc3)c2)cn1 [47 (as a HCl salt), N1-(5-(3-((4-fluorobenzyl)sulfonyl)-5-morpholinophenyl)pyrimidin-2-yl)ethane-1,2-diamine]
0.27 | 0.49 | C=C(c1ccccc1)c1cc(-c2cnc(N)nc2)nc(N2CCOCC2)c1 [Compound 126, 5-(6-morpholino-4-(1-phenylvinyl)pyridin-2-yl)pyrimidin-2-amine]
0.12 | 0.31 | Nc1ncc(-c2cc(N3CCCc4ccccc43)cc(N3CCOCC3)n2)cn1 [Compound 140, 5-(4-(3,4-Dihydroquinolin-1(2H)-yl)-6-morpholinopyridin-2-yl)pyrimidin-2-amine]
0.017 | 0.016 | Nc1ncc(-c2cc(S(=O)(=O)c3ccccc3Cl)cc(N3CCOCC3)n2)cn1 [Compound 139, 5-(4-((2-chlorophenyl)sulfonyl)-6-morpholinopyridin-2-yl)pyrimidin-2-amine]
